Reference: patent US20170044104A1, “NEW PESTICIDAL COMPOUNDS AND USES” (BAYER CROPSCIENCE AG, priority 2013, published 2017)

What was measured:
Haemonchus contortus = Haemonchus contortus (HAEMCO) larval mortality assay; details: 120 h; for mortality at 20 ppm: application rate 20 ppm; for mortality at 20 ppm / mortality at 4 ppm: after 5 days, read-out: activity (percentage of larval mortality); for mortality at 4 ppm: application rate 4 ppm; for Emax at 0.8 ppm / Emax at 4 ppm / Emax at 20 ppm: comparative test, 5 dat, read-out: % Efficacy
Experimental: (§1) Solvent: dimethyl sulfoxide
(§2) To produce a suitable preparation of active compound, 10 mg of active compound are dissolved in 0.5 ml solvent, and the concentrate is diluted with “Ringer's solution” to the desired concentration.
Approximately 40 larvae of the red stomach worm (Haemonchus contortus) are transferred into a test tube containing compound solution.
After 5 days percentage of larval mortality are recorded. 100% efficacy means all larvae are killed, 0% efficacy means no larvae are killed.

Cooperia curticei = Cooperia curticei (COOPCU) larval mortality assay; details: 120 h, after 5 days, read-out: activity (percentage of larval mortality); for mortality at 20 ppm: application rate 20 ppm; for mortality at 4 ppm: application rate 4 ppm
Experimental: as §1, §2
Approximately 40 nematode larvae (Cooperia curticei) are transferred into a test tube containing the compound solution.
After 5 days percentage of larval mortality is recorded. 100% efficacy means all larvae are killed; 0% efficacy means no larvae are killed.

Meloidogyne incognita = Meloidogyne incognita (MELGIN) gall formation assay; type: in vivo; details: 336 h, application rate 20 ppm, after 14 days, salad seedlings, read-out: nematicidal activity (percentage of gall formation)
Experimental: Solvent: 125.0 parts by weight of acetone
To produce a suitable preparation of active compound, 1 part by weight of active compound is mixed with the stated amount of solvent, and the concentrate is diluted with water to the desired concentration.
Vessels are filled with sand, a solution of the active ingredient, a suspension containing eggs and larvae of the southern root-knot nematode (Meloidogyne incognita) and salad seeds. The salad seeds germinate and the seedlings grow. Galls develop in the roots.
After 14 days the nematicidal activity is determined on the basis of the percentage of gall formation. 100% means no galls were found and 0% means the number of galls found on the roots of the treated plants was equal to that in untreated control plants.

Compound | mortality at 20 ppm (Haemonchus contortus) | mortality at 20 ppm (Cooperia curticei) | further results
O=C(NCCc1cccc(-c2cncc(F)c2)c1)c1ccccc1C(F)(F)F [Example 1-3] | 90% |  | 
Cc1nc(Cl)ccc1-c1cccc(CCNC(=O)c2ccccc2C(F)(F)F)c1 [Example 1-5] | 90% |  | 
Cc1cc(-c2ccc(CCNC(=O)c3ccccc3C(F)(F)F)cc2)ccn1 [Example 1-11] | 80% |  | 
O=C(NCCc1ccc(-c2ccc(C(F)(F)F)nc2)cc1)c1ccccc1C(F)(F)F [Example 1-12] | 90% | 100% | 
O=C(NCCc1ccc(-c2ccncc2)cc1)c1ccccc1C(F)(F)F [Example 1-13] |  | 80% | 
O=C(NCCc1ccc(-c2cncc(F)c2)cc1)c1ccccc1C(F)(F)F [Example 1-14] | 90% | 100% | 
O=C(NCCc1ccc(-c2ccc(Cl)nc2)cc1)c1ccccc1C(F)(F)F [Example 1-15] |  | 100% | mortality at 4 ppm (Haemonchus contortus): 90%
O=C(NCCc1ccc(-c2ccc(OCC(F)(F)F)nc2)cc1)c1cccnc1C(F)(F)F [Example 1-18] |  | 100% | 
O=C(NCCc1ccc(-c2ccc(C(F)(F)F)nc2)cc1)c1cccnc1C(F)(F)F [Example 1-19] |  | 100% | pest or weed control at 20 ppm (Meloidogyne incognita): 90%
Cc1ncccc1-c1ccc(CCNC(=O)c2cccnc2C(F)(F)F)cc1 [Example 1-21] |  | 100% | 
Cc1occc1-c1ccc(CCNC(=O)c2cccnc2C(F)(F)F)cc1 [Example 1-23] |  | 80% | 
O=C(NCCc1ccc(-c2ccnc(Cl)c2)cc1)c1cccnc1C(F)(F)F [Example 1-26] |  | 90% | 
O=C(NCCc1ccc(-c2ccnc(F)c2)cc1)c1cccnc1C(F)(F)F [Example 1-27] | 80% | 80% | 
O=C(NCCc1ccc(-c2cnccc2Cl)cc1Cl)c1ccccc1C(F)(F)F [Example 1-31] |  | 100% | 
O=C(NCCc1ccc(-c2ccc(OCC(F)(F)F)nc2)cc1Cl)c1ccccc1C(F)(F)F [Example 1-32] | 90% | 100% | 
O=C(NCCc1ccc(-c2ccnc(F)c2)cc1Cl)c1ccccc1C(F)(F)F [Example 1-34] |  | 100% | 
O=C(NCCc1ccc(-c2ccoc2)cc1Cl)c1ccccc1C(F)(F)F [Example 1-35] | 100% | 100% | Emax at 0.8 ppm (Haemonchus contortus): 80%; Emax at 4 ppm (Haemonchus contortus): 90%; Emax at 20 ppm (Haemonchus contortus): 100%
O=C(NCCc1ccc(-c2ccncc2)cc1Cl)c1ccccc1C(F)(F)F [Example 1-36] |  | 80% | 
O=C(NCCc1ccc(-c2ccc(C(F)(F)F)nc2)cc1Cl)c1ccccc1C(F)(F)F [Example 1-38] | 100% | 100% | Emax at 0.8 ppm (Haemonchus contortus): 100%; Emax at 4 ppm (Haemonchus contortus): 100%; Emax at 20 ppm (Haemonchus contortus): 100%

Compound | mortality at 20 ppm (Haemonchus contortus) | mortality at 20 ppm (Cooperia curticei) | further results
Cc1occc1-c1ccc(CCNC(=O)c2ccccc2C(F)(F)F)c(Cl)c1 [Example 1-40] | 100% | 100% | 
O=C(NCCc1ccc(-c2cccc(Cl)n2)cc1Cl)c1ccccc1C(F)(F)F [Example 1-41] | 90% | 100% | 
CC(C)Oc1ccc(-c2ccc(CCNC(=O)c3ccccc3C(F)(F)F)c(Cl)c2)cn1 [Example 1-43] | 100% | 100% | Emax at 0.8 ppm (Haemonchus contortus): 100%; Emax at 4 ppm (Haemonchus contortus): 100%; Emax at 20 ppm (Haemonchus contortus): 100%
O=C(NCCc1ccc(-c2cc(Cl)nc(Cl)c2)cc1Cl)c1ccccc1C(F)(F)F [Example 1-46] |  | 100% | 
Cc1nc(C)c(-c2ccc(CCNC(=O)c3ccccc3C(F)(F)F)c(Cl)c2)s1 [Example 1-50] |  | 90% | 
O=C(NCCc1ccc(-c2ccnc(F)c2)cc1)c1ccccc1C(F)(F)F [Example 1-51] |  | 100% | 
O=C(NCCc1ccc(-c2ccoc2)cc1)c1ccccc1C(F)(F)F [Example 1-52] |  | 100% | 
O=C(NCCc1ccc(-c2cccc(Cl)n2)cc1)c1ccccc1C(F)(F)F [Example 1-55] |  | 100% | 
O=C(NCCc1ccc(-c2cccnc2Cl)cc1)c1ccccc1C(F)(F)F [Example 1-56] | 80% | 80% | 
O=C(NCCc1ccc(-c2cccnc2)cc1)c1ccccc1C(F)(F)F [Example 1-57] | 80% | 100% | 
O=C(NCCc1ccc(-c2ccc(OCC(F)(F)F)nc2)cc1)c1ccccc1C(F)(F)F [Example 1-58] | 80% | 100% | 
Cc1occc1-c1ccc(CCNC(=O)c2ccccc2C(F)(F)F)cc1 [Example 1-59] |  | 100% | 
Cn1cc(-c2ccc(CCNC(=O)c3ccccc3C(F)(F)F)cc2)cn1 [Example 1-60] | 80% | 100% | 
O=C(NCCc1ccc(-c2ccc(F)nc2)cc1)c1ccccc1C(F)(F)F [Example 1-62] | 100% | 100% | Emax at 0.8 ppm (Haemonchus contortus): 80%; Emax at 4 ppm (Haemonchus contortus): 90%; Emax at 20 ppm (Haemonchus contortus): 100%
O=C(NCCc1ccc(-c2ccnc(Cl)c2)cc1)c1ccccc1C(F)(F)F [Example 1-64] | 80% | 100% | 
O=C(NCCc1ccc(-c2ccnc(Cl)c2)cc1Cl)c1ccccc1C(F)(F)F [Example 1-65] |  | 90% | 
O=C(NCC(F)(F)c1ccc(-c2ccc(Cl)nc2)cc1Cl)c1cccnc1C(F)(F)F [Example 1-67] | 90% |  | mortality at 4 ppm (Cooperia curticei): 90%
O=C(NCC(F)c1ccc(-c2ccc(C(F)(F)F)nc2)cc1Cl)c1cccnc1C(F)(F)F (centres unmarked) [Example 1-71] | 90% | 100% | 
O=C(NCC(F)c1ccc(-c2ccc(C(F)(F)F)nc2)cc1Cl)c1nccnc1C(F)(F)F (centres unmarked) [Example 1-72] | 100% | 100% | 

Compound | mortality at 20 ppm (Haemonchus contortus) | mortality at 20 ppm (Cooperia curticei) | further results
O=C(NCC(F)c1ccc(-c2cccnc2Cl)cc1Cl)c1nccnc1C(F)(F)F (centres unmarked) [Example 1-79] | 100% | 100% | 
O=C(NCC(F)c1ccc(-c2cncc(Cl)c2)cc1Cl)c1cccnc1C(F)(F)F (centres unmarked) [Example 1-83] | 100% | 100% | 
CC(C)Oc1ccc(-c2ccc(C(F)(F)CNC(=O)c3ccccc3C(F)(F)F)c(Cl)c2)cn1 [Example 1-91] |  | 100% | 
CC(F)(CNC(=O)c1nccnc1C(F)(F)F)c1ccc(-c2cncc(F)c2)cc1Cl (centres unmarked) [Example 1-102] | 100% | 100% | 
CC(F)(CNC(=O)c1c(F)cccc1F)c1ccc(-c2cncc(F)c2)cc1Cl (centres unmarked) [Example 1-103] | 100% |  | 
O=C(NCC(F)(F)c1ccc(-c2ccc(C(F)(F)F)nc2)cc1F)c1ccccc1C(F)(F)F [Example 1-105] |  | 90% | 
COc1ccc(-c2ccc(C(F)(F)CNC(=O)c3ccccc3C(F)(F)F)c(F)c2)cn1 [Example 1-110] | 90% | 100% | 
O=C(NCC(F)(F)c1ccc(-c2ccc(Cl)nc2)cc1F)c1ccccc1C(F)(F)F [Example 1-114] | 80% | 100% | 
COc1cncc(-c2ccc(C(F)(F)CNC(=O)c3ccccc3C(F)(F)F)c(C(F)(F)F)c2)c1 [Example 1-121] | 80% | 80% | 
O=C(NCC(F)(F)c1ccc(-c2cncc(F)c2)cc1C(F)(F)F)c1ccccc1C(F)(F)F [Example 1-122] | 100% | 100% | 
O=C(NCC(F)(F)c1ccc(-c2ccc(C(F)(F)F)nc2)cc1C(F)(F)F)c1ccccc1C(F)(F)F [Example 1-124] |  | 90% | mortality at 4 ppm (Haemonchus contortus): 90%
CN(C)c1ccc(-c2ccc(C(F)(F)CNC(=O)c3ccccc3C(F)(F)F)c(C(F)(F)F)c2)cn1 [Example 1-125] |  | 80% | 
COc1ccc(-c2ccc(C(F)(F)CNC(=O)c3ccccc3C(F)(F)F)c(C(F)(F)F)c2)cn1 [Example 1-127] | 100% | 100% | 
CC(F)(CNC(=O)c1cccnc1C(F)(F)F)c1ccc(-c2ccc(F)nc2)cc1Cl (centres unmarked) [Example 1-129] |  |  | pest or weed control at 20 ppm (Meloidogyne incognita): 100%
CC(F)(CNC(=O)c1ccccc1C(F)(F)F)c1ccc(-c2ccc(F)nc2)cc1Cl (centres unmarked) [Example 1-130, N-{2-[2-chloro-4-(6-fluoropyridin-3-yl)phenyl]-2-fluoropropyl}-2-(trifluoromethyl) benzamide] |  |  | pest or weed control at 20 ppm (Meloidogyne incognita): 100%
Cc1cc(-c2ccc(F)nc2)ccc1C(F)(F)CNC(=O)c1ccccc1C(F)(F)F [Example 1-136] |  |  | pest or weed control at 20 ppm (Meloidogyne incognita): 90%
O=C(NCC(F)(F)c1ccc(-c2ccc(F)nc2)cc1C(F)(F)F)c1cccnc1C(F)(F)F [Example 1-140] |  |  | pest or weed control at 20 ppm (Meloidogyne incognita): 90%
CN(C)c1ncc(-c2ccc(C(F)(F)CNC(=O)c3ccccc3C(F)(F)F)c(F)c2)cn1 [Example 1-146] |  | 100% | 
CN(C)c1ncc(-c2ccc(C(F)(F)CNC(=O)c3ccccc3C(F)(F)F)c(C(F)(F)F)c2)cn1 [Example 1-149] |  |  | mortality at 4 ppm (Cooperia curticei): 90%
